Assay results published in US8735412B2, “Sulfoximine-substituted anilinopyrimidine derivatives as CDK inhibitors, the production thereof, and use as medicine” (Bayer Intellectual Property GmbH, priority 2008, dated 2014).
Like-named read-outs stand apart in the source and are kept apart here.

Key:
[1] = tested on: HeLa-MaTu human cervical carcinoma xenograft; assay: HeLa-MaTu cervical tumor xenograft model on NMRI nude mice; assay type: in vivo; settings: oral
Protocol: HeLa-MaTu (EPO-GmbH, Berlin) human cervical carcinoma cells, which were grown in cell culture, were implanted subcutaneously in the flank of female NMRI nude mice. […] The study was terminated as soon as the tumors in one of the groups reached a size of approx. 150 mm^2.
(§1) The growth-inhibiting effect of the compounds was tested in the HeLa-MaTu cervical tumor model as xenograft on NMRI nude mice. […] Treatment of the established tumors was begun on day 4 after inoculation of the tumors.
as §1, §1
(§2) The study was designed for determining the initial response of a human cervical carcinoma xenograft model to treatments with the 5-Br comparative substance V12. The growth-inhibiting effect of the compounds was tested in the HeLa-MaTu cervical tumor model as xenograft on NMRI nude mice. V12 was dissolved completely in the solubilizer 40% polyethylene glycol 400 (PEG 400)/60% water to a final concentration of 0.7 mg/ml (group 2), 0.85 mg/ml (group 3), or 1.0 mg/ml (group 4). Treatment of the established tumors was begun on day 4 after inoculation of the tumors.
HeLa-MaTu (EPO-GmbH, Berlin) human cervical carcinoma cells, which were grown in cell culture, were implanted subcutaneously in the flank of female NMRI nude mice. […] The study was terminated as soon as the tumors in one of the groups reached a size of approx. 160 mm^2.
(§3) The growth-inhibiting effect of the compounds was tested in the HeLa-MaTu cervical tumor model as xenograft on NMRI nude mice. […] Treatment of the established tumors was begun on day 5 after inoculation of the tumors.
as §3, §3
The following test groups were used: • Group 1: Control, treatment with solubilizer (40% PEG 400/60% water) • Group 2: Compound according to WO 2005/037800 prepared according to preparation V14 disclosed above • (6 mg/kg, oral, 2x daily on day 5, 6, 12, 13, 19, 20) • Group 3: Compound according to WO 2005/037800 prepared according to preparation V14 disclosed above • (8 mg/kg, oral, 2× daily on day 5, 6, 12, 13, 19, 20) • Group 4: Compound according to WO 2005/037800 prepared according to preparation V14 disclosed above • (10 mg/kg, oral, 2× daily on day 5, 6, 12, 13, 19, 20)
as §2, with “substance V14.” for “substance V12.”, “mice. V14” for “mice. V12”, “of 0.6” for “of 0.7”, “2), 0.8” for “2), 0.85”, “day 5” for “day 4”

[2] = tested on: HeLa-MaTu cervical carcinoma cells; assay: Proliferation assay (Assay 4), crystal violet staining; assay type: cell-based; settings: Homo sapiens, 96 h, 4 days incubation; read-out: HeLa-MaTu (Assay 4) Concentration for 50% inhibition of cellular proliferation, IC50
Protocol: 10.4 Assay 4: Proliferation Assay
Cultivated human HeLa-MaTu cervical carcinoma cells (obtained from EPO-GmbH, Berlin) were plated at a density of 3000 cells/measuring point in a 96-well multititer is plate in 200 μl of growth medium (DMEM/HAMS F12, 2 mM L-glutamine, 10% fetal calf serum). After 24 hours the cells of one plate (zero-point plate) were stained with crystal violet (see below), whereas the medium of the other plates was replaced with fresh culture medium (200 μl), to which the test substances had been added at various concentrations (0 μM, and in the range 0.01-30 μM; the final concentration of the solvent dimethylsulfoxide was 0.5%). The cells were incubated for 4 days in the presence of the test substances. Cellular proliferation was determined by staining the cells with crystal violet: the cells were fixed by adding 20 μl/measuring point of an 11% glutaraldehyde solution for 15 min at room temperature. After washing the fixed cells with water three times, the plates were dried at room temperature. The cells were stained by adding 100 μl/measuring point of a 0.1% crystal violet solution (pH adjusted to pH3 by adding acetic acid). After washing the stained cells with water three times, the plates were dried at room temperature. The dye was dissolved by adding 100 μl/measuring point of a 10% acetic acid solution. The extinction was determined photometrically at a wavelength of 595 nm. The percentage change in cell growth was calculated by standardization of the measured values to the extinction values of the zero-point plate (=0%) and the extinction of the untreated (0 μM) cells (=100%). The measured data were standardized to 0% inhibition (cell proliferation without inhibitor) and 100% inhibition (zero-point plate). The IC50 values were determined by means of a 4-parameter fit using the company's own software.

CDK2/CycE = biological target: T1, CDK2/CycE (Homo sapiens, UniProt P24941); assay: CDK2/CycE kinase assay (Assay 2); assay type: biochemical; settings: 0.5 μM ATP, histon IIIS substrate; read-out: CDK2/CycE (Assay 2) Concentration for 50% inhibition of enzyme activity, IC50
T1 construct: purchased ProQinase GmbH, Freiburg; host or cells: baculovirus-infected insect cells (Sf9)
Protocol: 10.2 Assay 2: CDK2/CycE Kinase Assay
(§4) Recombinant CDK2 and CycE-GST fusion proteins, purified from baculovirus-infected insect cells (Sf9), were purchased from ProQinase GmbH, Freiburg. Histon IIIS, used as kinase substrate, was purchased from the company Sigma. CDK2/CycE (50 ng/measuring point) was incubated for 10 min at 22° C. in the presence of various concentrations of test substances (0 μM, and within the range 0.01-100 μM) in assay buffer [50 mM Tris/HCl pH8.0, 10 mM MgCl2, 0.1 mM Na ortho-vanadate, 1.0 mM dithiothreitol, 0.5 μM adenosine triphosphate (ATP), 10 μg/measuring point histon IIIS, 0.2 μCi/measuring point ^33P-gamma ATP, 0.05% NP40, 1.25% dimethylsulfoxide]. The reaction was stopped by adding EDTA solution (250 mM, pH8.0, 15 μl/measuring point).
(§5) From each reaction mixture, 15 μl was applied to P30 filter strips (from Wallac), and unincorporated ^33P-ATP was removed by washing the filter strips three times, for 10 min each time, in 0.5% phosphoric acid. After drying the filter strips for 1 hour at 70° C., the filter strips were covered with scintillator strips (MeltiLex™ A, from Wallac) and stoved for 1 hour at 90° C. The amount of incorporated ^33P (substrate phosphorylation) was determined by scintillation measurement in a gamma-radiation measuring instrument (Wallac). The measured data were standardized to 0% inhibition (enzyme reaction without inhibitor) and 100% inhibition (all assay components except enzyme). The IC50 values were determined by means of a 4-parameter fit using the company's own software.

CDK1/CycB = biological target: T2, CDK1/CycB (Homo sapiens, UniProt P06493); assay: CDK1/CycB kinase assay (Assay 1); assay type: biochemical; settings: 0.5 μM ATP, histon IIIS substrate; read-out: CDK1/CycB (Assay 1) Concentration for 50% inhibition of enzyme activity, IC50
T2 construct: purchased ProQinase GmbH, Freiburg; host or cells: baculovirus-infected insect cells (Sf9)
Protocol: 10.1 Assay 1: CDK1/CycB Kinase Assay
Recombinant CDK1 and CycB-GST fusion proteins, purified from baculovirus-infected insect cells (Sf9), were purchased from ProQinase GmbH, Freiburg. The histon IIIS used as kinase substrate is commercially available from the company Sigma.
as §4, with “CDK1/CycB (200” for “Recombinant CDK2 and CycE-GST fusion proteins, purified from baculovirus-infected insect cells (Sf9), were purchased from ProQinase GmbH, Freiburg. Histon IIIS, used as kinase substrate, was purchased from the company Sigma. CDK2/CycE (50”
as §5

[3] = 2.5 mg/kg (group 4), 2x daily on day 5, 6, 12, 13, 19, 20, day 20
[4] = 1.5, 2.0, 2.5 mg/kg, 2x daily on day 5, 6, 12, 13, 19, 20
[5] = Mus musculus, 480 h, 2.5 mg/kg (group 4), 2x daily on day 5, 6, 12, 13, 19, 20, day 20, read-out: treatment/control ratio T/C (tumor weight)

T2 sequence (P06493 whole entry): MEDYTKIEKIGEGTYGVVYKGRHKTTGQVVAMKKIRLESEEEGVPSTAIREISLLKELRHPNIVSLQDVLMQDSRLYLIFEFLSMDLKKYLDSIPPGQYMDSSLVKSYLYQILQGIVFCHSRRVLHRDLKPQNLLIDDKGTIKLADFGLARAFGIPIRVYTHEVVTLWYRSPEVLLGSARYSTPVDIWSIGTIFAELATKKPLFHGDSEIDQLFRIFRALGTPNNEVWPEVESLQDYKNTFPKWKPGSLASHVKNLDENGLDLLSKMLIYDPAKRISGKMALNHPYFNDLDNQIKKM
T2 sequence (P14635 whole entry partner): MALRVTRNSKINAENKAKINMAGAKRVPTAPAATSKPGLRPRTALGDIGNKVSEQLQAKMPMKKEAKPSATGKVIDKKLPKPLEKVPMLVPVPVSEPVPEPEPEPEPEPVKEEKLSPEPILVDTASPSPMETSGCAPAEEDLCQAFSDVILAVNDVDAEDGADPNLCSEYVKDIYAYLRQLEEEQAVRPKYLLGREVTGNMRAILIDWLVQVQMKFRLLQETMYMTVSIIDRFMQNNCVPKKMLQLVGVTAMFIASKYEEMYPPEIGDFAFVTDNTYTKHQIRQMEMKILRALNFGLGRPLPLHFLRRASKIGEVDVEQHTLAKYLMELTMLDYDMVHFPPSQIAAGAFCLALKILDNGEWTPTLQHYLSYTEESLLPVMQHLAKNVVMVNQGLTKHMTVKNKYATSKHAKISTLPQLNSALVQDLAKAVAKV

C[C@@H](O)[C@@H](C)Oc1nc(Nc2ccc(S(=N)(=O)C3CC3)cc2)ncc1C(F)(F)F (mixture of isomers) [Example 1-SI-2, (RS)-S-Cyclopropyl-S-(4-{[4-{[(1R,2R)-2-hydroxy-1-methylpropyl]oxy}-5-(trifluoromethyl)pyrimidin-2-yl]amino}phenyl)sulfoximide]
reduction of tumor weight at the end of the study to % of the control group [1, 3]: 19% | effect on tumor growth (in words) [1, 4]: dose-dependent inhibition of tumor growth | response vs control in vivo at 2.5 mg/kg [1, 5]: 19%

C[C@@H](O)[C@@H](C)Oc1nc(Nc2ccc(S(C)(=N)=O)cc2)ncc1C(F)(F)F (mixture of isomers) [Example 2-SI-2, (RS)-S-(4-{[4-{[(1R,2R)-2-Hydroxy-1-methylpropyl]oxy}-5-(trifluoromethyl)pyrimidin-2-yl]amino}phenyl)-S-methylsulfoximide]
reduction of tumor weight at the end of the study to % of the control group [1, 3]: 18% | effect on tumor growth (in words) [1, 4]: dose-dependent inhibition of tumor growth | response vs control in vivo at 2.5 mg/kg [1, 5]: 18% | IC50 [2]: 8 nM

C[C@@H](Nc1nc(Nc2ccc(S(=N)(=O)C3CC3)cc2)ncc1C(F)(F)F)C(C)(C)O (mixture of isomers) [Example 5-SI-2, (RS)-S-Cyclopropyl-S-(4-{[4-{[(R)-2-hydroxy-1,2-dimethylpropyl]amino}-5-(trifluoromethyl)pyrimidin-2-yl]amino}phenyl)sulfoximide]
effect on tumor growth (in words) ([1]; 5 mg/kg, 2x daily on day 4, 5, 11, 12): greatly inhibited tumor growth | reduction of tumor weight at the end of the study to % of the control group ([1]; 5 mg/kg, 2x daily on day 4, 5, 11, 12, day 17): 7% | response vs control in vivo at 5 mg/kg ([1]; Mus musculus, 408 h, 5 mg/kg, 2x daily on day 4, 5, 11, 12, day 17, read-out: treatment/control ratio T/C (tumor weight)): 7%

CCS(=N)(=O)c1ccc(Nc2ncc(C(F)(F)F)c(N[C@H](C)[C@@H](C)O)n2)cc1 (mixture of isomers) [Example 6-SI-1, (RS)-S-Ethyl-S-(4-{[4-{[(1R,2R)-2-hydroxy-1-methylpropyl]amino}-5-(trifluoromethyl)pyrimidin-2-yl]amino}phenyl)sulfoximide]
IC50 [2]: 16 nM

CCS(=N)(=O)c1ccc(Nc2ncc(C(F)(F)F)c(N[C@H](C)[C@@H](C)O)n2)cc1 (mixture of isomers) [Example 6-SI-2, (RS)-S-Ethyl-S-(4-{[4-{[(1R,2R)-2-hydroxy-1-methylpropyl]amino}-5-(trifluoromethyl)pyrimidin-2-yl]amino}phenyl)sulfoximide]
reduction of tumor weight at the end of the study to % of the control group ([1]; 5 mg/kg (group 4), 2x daily on day 4, 5, 11, 12, 17, 18, day 20): 8% | effect on tumor growth (in words) ([1]; 3, 4, 5 mg/kg, 2x daily on day 4, 5, 11, 12, 17, 18): dose-dependent inhibition of tumor growth | response vs control in vivo at 5 mg/kg ([1]; Mus musculus, 480 h, 5 mg/kg (group 4), 2x daily on day 4, 5, 11, 12, 17, 18, day 20, read-out: treatment/control ratio T/C (tumor weight)): 8%

C[C@@H](Nc1nc(Nc2ccc(S(C)(=N)=O)cc2)ncc1C(F)(F)F)C(C)(C)O (single isomer, unassigned) [Example 9-SI-1]
IC50 (CDK2/CycE): 5 nM

C[C@@H](Nc1nc(Nc2ccc(S(C)(=N)=O)cc2)ncc1C(F)(F)F)C(C)(C)O (single isomer, unassigned) [Example 9-SI-2]
IC50 (CDK2/CycE): 3 nM

C[C@@H](Nc1nc(Nc2ccc([S@](=N)(=O)C3CC3)cc2)ncc1Br)C(C)(C)O [Example V11, (R)-S-[4-({5-bromo-4-[(R)-(2-hydroxy-1,2-dimethylpropyl)amino]pyrimidin-2-yl}amino)phenyl]-S-cyclopropyl-sulfoximide]
tolerability of the cyclic treatment regimen ([1]; 8 mg/kg, 2x daily on 2 successive days followed by 5 treatment-free days): well-tolerated | effect on tumor growth (in words) ([1]; 8 mg/kg, 2x daily on day 4, 5, 11, 12): inhibited tumor growth | reduction of tumor weight at the end of the study to % of the control group ([1]; 8 mg/kg, 2x daily on day 4, 5, 11, 12, day 17): 39% | response vs control in vivo at 8 mg/kg ([1]; Mus musculus, 408 h, 8 mg/kg, 2x daily on day 4, 5, 11, 12, day 17, read-out: treatment/control ratio T/C (tumor weight)): 39% | IC50 [2]: 13 nM | IC50 (CDK1/CycB): 8 nM | IC50 (CDK2/CycE): 7 nM
